How the values were obtained:
[1] = Pharmacokinetic studies in mice; conditions: mouse, in vivo
Description: This is exemplified by Example 9 3,4-Dichlorophenyl 3-deoxy-3-[4-(3,4,5-trifluorophenyl)-1H-1,2,3-triazol-1-yl]-1-thio-α-D-galactopyranoside in the table below.

galectins = conditions: cited from earlier work

## OC[C@H]1O[C@H](Sc2ccc(Cl)c(Cl)c2)[C@H](O)[C@@H](n2cc(-c3cc(F)c(F)c(F)c3)nn2)[C@H]1O [Example 9, 3,4-Dichlorophenyl 3-deoxy-3-[4-(3,4,5-trifluorophenyl)-1H-1,2,3-triazol-1-yl]-1-thio-α-D-galactopyranoside]
[1]; 10 mg/kg, oral, read-out: Bioavailability (F)
  bioavailability: 75%
[1]; po, 10 mg/kg
  Cmax: 16 µM
[1]; read-out: Clearance (CL)
  clearance: 1.2 mL/min/kg
[1]; read-out: Halflife (t½) (converted)
  half-life: 4.5 h

## O=C[C@H](O)[C@@H](O)[C@@H](O)[C@H](O)CO [D-galactose, D-(+)-galactose]
galectins; galectins, compared with lactose
  affinity relative to lactose (times lower): 50-100 times lower

## OC[C@H]1O[C@@H](O[C@H]2[C@H](O)[C@@H](O)C(O)O[C@@H]2CO)[C@H](O)[C@@H](O)[C@H]1O (stereo partly drawn) [lactose]
galectins; all galectins
  Kd: 500 to 1000 µM
